Among the data in patent US10233182B2, “Substituted spirocyclic inhibitors of autotaxin” (X-Rx, Inc., priority 2014, dated 2019) are IC50 values, retold here.

Where a name gives a salt, the structure may show the parent alone.

The assay deals with Autotaxin (Homo sapiens (Human), UniProt Q13822). Description: Autotaxin LPC Cascade Assay. It is filed as biochemical. The following applies: Autotaxin 5 nM, LPC 100 μM, choline oxidase/HRP/Ampliflu Red fluorescence read-out, 2% DMSO, RT; read-out: IC50 ATX Activity. In outline: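 Choline liberated from LPC by autotaxin during 1 h, after a 10-min RT compound preincubation, was converted through choline oxidase/HRP to a fluorescent Ampliflu Red product.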
A word on the IC50: it is the point on the concentration scale where inhibition reaches its midpoint. As for `CC(C)[C@@H](NC(=O)C12CC3CC(CC(C3)C1)C2)C(=O)N1CCC2(CC1)C(=O)N(C)CN2c1ccc(C(=O)O)cc1` [Example 164, (R)-4-(8-(2-(1-Admantanecarboxamido)-3-methylbutanoyl)-3-methyl-4-oxo-1,3,8-triazaspiro[4.5]decan-1-yl)benzoic Acid], the 50% inhibitory concentration (IC50) is no less than 1000 nM.

For `CC(C)[C@@H](NC(=O)c1cc(OC(F)F)ccc1F)C(=O)N1CCC2(CC1)C(=O)N(C)CN2c1ccc(C(=O)O)cc1` [Example 165, (R)-4-(8-(2-(5-(Difluoromethoxy)-2-fluorobenzamido)-3-methylbutanoyl)-3-methyl-4-oxo-1,3,8-triazaspiro[4.5]decan-1-yl)benzoic Acid], the IC50 was less than 500 nM.

For `CC(C)[C@@H](NC(=O)c1cc(OC(F)F)ccc1F)C(=O)N1CCC2(CC1)C(=O)N(C)C(=O)N2c1ccc(C(=O)O)cc1` [Example 166, (R)-4-(8-(2-(5-(Difluoromethoxy)-2-fluorobenzamido)-3-methylbutanoyl)-3-methyl-2,4-dioxo-1,3,8-triazaspiro[4.5]decan-1-yl)benzoic Acid], the IC50 was less than 500 nM.

As for `CC(C)[C@@H](NC(=O)c1cc(OC(F)(F)F)ccc1F)C(=O)N1CCC2(CC1)C(=O)N(C)C(=O)N2c1ccc(C(=O)O)cc1` [Example 167, (R)-4-(8-(2-(2-Fluoro-5-(trifluoromethoxy)benzamido)-3-methylbutanoyl)-3-methyl-2,4-dioxo-1,3,8-triazaspiro[4.5]decan-1-yl)benzoic Acid], the IC50 was less than 500 nM.

Regarding `CCc1ccc(F)c(C(=O)N[C@@H](C(=O)N2CCC3(CC2)C(=O)N(C)CN3c2ccc(OCC(=O)O)cc2)C(C)C)c1` [Example 168, (R)-2-(4-(8-(2-(5-Ethyl-2-fluorobenzamido)-3-methylbutanoyl)-3-methyl-4-oxo-1,3,8-triazaspiro[4.5]decan-1-yl)phenoxy)acetic Acid], the IC50 is less than 500 nM.

In the case of `CCc1ccc(F)c(C(=O)N[C@@H](C(=O)N2CCC3(CC2)C(=O)N(C)CN3c2ccc(OCC(N)=O)cc2)C(C)C)c1` [Example 169, (R)—N-(1-(1-(4-(2-Amino-2-oxoethoxy)phenyl)-3-methyl-4-oxo-1,3,8-triazaspiro[4.5]decan-8-yl)-3-methyl-1-oxobutan-2-yl)-5-ethyl-2-fluorobenzamide], the IC50 was less than 500 nM.

On to `CCc1ccc(F)c(C(=O)N[C@@H](C(=O)N2CCC3(CC2)C(=O)N(C)CN3c2ccc(OCC#N)cc2)C(C)C)c1` [Example 170, (R)—N-(1-(1-(4-(Cyanomethoxy)phenyl)-3-methyl-4-oxo-1,3,8-triazaspiro[4.5]decan-8-yl)-3-methyl-1-oxobutan-2-yl)-5-ethyl-2-fluorobenzamide], for which the IC50 was less than 500 nM.

On to `CC(C)[C@@H](NC(=O)c1cc(C(F)(F)F)ccc1F)C(=O)N1CCC2(CC1)C(=O)N(C)CN2c1ccc(OCCN(C)C)cc1` [Example 171, (R)—N-(1-(1-(4-(2-(Dimethylamino)ethoxy)phenyl)-3-methyl-4-oxo-1,3,8-triazaspiro[4.5]decan-8-yl)-3-methyl-1-oxobutan-2-yl)-2-fluoro-5-(trifluoromethyl)benzamide trifluoroacetic Acid Salt], for which the IC50 was less than 500 nM.

On to `CCc1ccc(F)c(C(=O)N[C@@H](C(=O)N2CCC3(CC2)C(=O)N(C)CN3c2ccc(NC(C)=O)cc2)C(C)C)c1` [Example 172, (R)—N-(1-(1-(4-Acetamidophenyl)-3-methyl-4-oxo-1,3,8-triazaspiro[4.5]decan-8-yl)-3-methyl-1-oxobutan-2-yl)-5-ethyl-2-fluorobenzamide], for which the half-maximal inhibitory concentration (IC50) is less than 500 nM.

Consider `CCc1ccc(F)c(C(=O)N[C@@H](C(=O)N2CCC3(CC2)C(=O)N(C)CN3c2ccc(NS(C)(=O)=O)cc2)C(C)C)c1` [Example 173, (R)-5-Ethyl-2-fluoro-N-(3-methyl-1-(3-methyl-1-(4-(methylsulfonamido)phenyl)-4-oxo-1,3,8-triazaspiro[4.5]decan-8-yl)-1-oxobutan-2-yl)benzamide], for which the IC50 was less than 500 nM.

Turning to `CC(C)[C@@H](NC(=O)c1cc(C(F)(F)F)ccc1F)C(=O)N1CCC2(CC1)C(=O)N(C)CN2c1ccc(NS(C)(=O)=O)cc1` [Example 174, (R)-2-Fluoro-N-(3-methyl-1-(3-methyl-1-(4-(methylsulfonamido)phenyl)-4-oxo-1,3,8-triazaspiro[4.5]decan-8-yl)-1-oxobutan-2-yl)-5-(trifluoromethyl)benzamide], the IC50 was less than 500 nM.

In the case of `COC(=O)Nc1ccc(N2CN(C)C(=O)C23CCN(C(=O)[C@H](NC(=O)c2cc(C(F)(F)F)ccc2F)C(C)C)CC3)cc1` [Example 175, (R)-Methyl-4-(8-(2-(2-fluoro-5-(trifluoromethyl)benzamido)-3-methylbutanoyl)-3-methyl-4-oxo-1,3,8-triazaspiro[4.5]decan-1-yl)phenylcarbamate], the IC50 was less than 500 nM.

For the compound `Cc1cc(F)cc(C(=O)N[C@@H](C(=O)N2CCC3(CC2)C(=O)N(CC(=O)O)CN3c2ccccc2)C(C)C)c1` [Example 176, (R)-2-(8-(2-(3-Fluoro-5-methylbenzamido)-3-methylbutanoyl)-4-oxo-1-phenyl-1,3,8-triazaspiro[4.5]decan-3-yl)acetic Acid], the 50% inhibitory concentration (IC50) was 500 to 1000 nM.

Turning to `Cc1cccc(C(=O)N[C@@H](C(=O)N2CCC3(CC2)C(=O)N(CCCS(C)(=O)=O)CN3c2ccccc2)C(C)C)c1F` [Example 177, (R)-2-Fluoro-3-methyl-N-(3-methyl-1-(3-(3-(methylsulfonyl)propyl)-4-oxo-1-phenyl-1,3,8-triazaspiro[4.5]decan-8-yl)-1-oxobutan-2-yl)benzamide], the IC50 was less than 500 nM.

As to `CCc1ccc(F)c(C(=O)N[C@@H](C(=O)N2CCC3(CC2)C(=O)N(CC#N)CN3c2ccccc2)C(C)C)c1` [Example 178, (R)—N-(1-(3-(Cyanomethyl)-4-oxo-1-phenyl-1,3,8-triazaspiro[4.5]decan-8-yl)-3-methyl-1-oxobutan-2-yl)-5-ethyl-2-fluorobenzamide], the IC50 is less than 500 nM.

For `Cc1cccc(C(=O)N[C@@H](C(=O)N2CCC3(CC2)C(=O)N(C)CN3c2ccc(C#N)cc2)C(C)C)c1F` [Example 179, (R)—N-(1-(1-(4-Cyanophenyl)-3-methyl-4-oxo-1,3,8-triazaspiro[4.5]decan-8-yl)-3-methyl-1-oxobutan-2-yl)-2-fluoro-3-methylbenzamide], the IC50 was less than 500 nM.

For the compound `CC(C)[C@@H](NC(=O)c1cc(C(F)(F)F)ccc1F)C(=O)N1CCC2(CC1)C(=O)N(C)C(=O)N2c1ccc(Cl)cc1` [Example 181, (R)—N-(1-(1-(4-Chlorophenyl)-3-methyl-2,4-dioxo-1,3,8-triazaspiro[4.5]decan-8-yl)-3-methyl-1-oxobutan-2-yl)-2-fluoro-5-(trifluoromethyl)benzamide], the IC50 was less than 500 nM.

Take `CC(C)[C@@H](NC(=O)c1cc(C(F)(F)F)ccc1F)C(=O)N1CCC2(CC1)C(=O)N(C)C(=O)N2c1ccc(F)cc1` [Example 182, (R)-2-Fluoro-N-(1-(1-(4-fluorophenyl)-3-methyl-2,4-dioxo-1,3,8-triazaspiro[4.5]decan-8-yl)-3-methyl-1-oxobutan-2-yl)-5-(trifluoromethyl)benzamide]: the IC50 was less than 500 nM.

With `CC(C)[C@@H](NC(=O)c1cc(C(F)(F)F)ccc1F)C(=O)N1CCC2(CC1)C(=O)N(C)C(=O)N2c1ccc(Cl)c(Cl)c1` [Example 183, (R)—N-(1-(1-(3,4-Dichlorophenyl)-3-methyl-2,4-dioxo-1,3,8-triazaspiro[4.5]decan-8-yl)-3-methyl-1-oxobutan-2-yl)-2-fluoro-5-(trifluoromethyl)benzamide], the IC50 is less than 500 nM.
